These are literature values, as cited in US20220000751A1, “METHOD FOR PREPARING AND USING HAIR TREATMENT AGENTS WITH ORGANIC C1-C6-ALKOXY-SILANES” (Henkel AG & Co. KGaA, priority 2020, published 2022).

For the series the following is noted: 25° C.

On to `O=S(=O)(O)c1ccc(N=Nc2c(O)ccc3ccccc23)cc1` [Acid Orange 7, 4-[(2-hydroxy-1-naphthyl)azo]benzene sulphonate], for which the solubility in water result is listed as “more than 7 g/L”.

As to `O=C(O)C1=NN(c2ccc(S(=O)(=O)O)cc2)C(=O)C1N=Nc1ccc(S(=O)(=O)O)cc1` (stereo not drawn) [Acid Yellow 23, 4,5-dihydro-5-oxo-1-(4-sulfophenyl)-4-((4-sulfophenyl)azo)-1H-pyrazole-3-carboxylic acid], the “solubility in water (in words)” value is “highly soluble”.

For `CCN(Cc1cccc(S(=O)(=O)O)c1)c1ccc(C(=C2C=CC(=[N+](CC)Cc3cccc(S(=O)(=O)O)c3)C=C2)c2ccccc2S(=O)(=O)[O-])cc1` [Acid Blue 9], the solubility in water entry is listed as “more than 20 % by weight”.
